The IC50 is the midpoint of a concentration-inhibition curve. High values mean a need for much substance, low ones inhibition by little substance. The Dmax is the greatest extent of degradation seen. Broadly, the DC50 is the concentration at which degradation of the target reaches its halfway point.

In assay [1] the target is His tagged CRBN+DDB−DLS7+CXU4 (Homo sapiens (Human), UniProt Q96SW2). In words: IC50 Measurements for Binding to CRBN/DDBI (HTRF). The following applies: Cy5-labeled Thalidomide probe, one hour incubation. (In general: Time-resolved FRET reads energy transfer from a long-lived donor to a nearby acceptor.)
His tagged CRBN+DDB−DLS7+CXU4, sequence (Q96SW2 whole entry): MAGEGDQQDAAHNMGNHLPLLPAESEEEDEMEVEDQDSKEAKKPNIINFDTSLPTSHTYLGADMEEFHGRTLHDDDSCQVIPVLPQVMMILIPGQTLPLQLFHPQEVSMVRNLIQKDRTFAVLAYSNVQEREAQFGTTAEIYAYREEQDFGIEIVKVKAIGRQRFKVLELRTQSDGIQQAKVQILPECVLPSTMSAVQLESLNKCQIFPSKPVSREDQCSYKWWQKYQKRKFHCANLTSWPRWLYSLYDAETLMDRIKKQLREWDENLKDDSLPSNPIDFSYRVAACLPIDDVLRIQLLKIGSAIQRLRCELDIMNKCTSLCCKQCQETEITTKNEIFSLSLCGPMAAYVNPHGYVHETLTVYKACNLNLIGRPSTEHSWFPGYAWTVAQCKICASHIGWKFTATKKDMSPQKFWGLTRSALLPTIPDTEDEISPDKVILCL
His tagged CRBN+DDB−DLS7+CXU4, sequence (Q16531 whole entry partner): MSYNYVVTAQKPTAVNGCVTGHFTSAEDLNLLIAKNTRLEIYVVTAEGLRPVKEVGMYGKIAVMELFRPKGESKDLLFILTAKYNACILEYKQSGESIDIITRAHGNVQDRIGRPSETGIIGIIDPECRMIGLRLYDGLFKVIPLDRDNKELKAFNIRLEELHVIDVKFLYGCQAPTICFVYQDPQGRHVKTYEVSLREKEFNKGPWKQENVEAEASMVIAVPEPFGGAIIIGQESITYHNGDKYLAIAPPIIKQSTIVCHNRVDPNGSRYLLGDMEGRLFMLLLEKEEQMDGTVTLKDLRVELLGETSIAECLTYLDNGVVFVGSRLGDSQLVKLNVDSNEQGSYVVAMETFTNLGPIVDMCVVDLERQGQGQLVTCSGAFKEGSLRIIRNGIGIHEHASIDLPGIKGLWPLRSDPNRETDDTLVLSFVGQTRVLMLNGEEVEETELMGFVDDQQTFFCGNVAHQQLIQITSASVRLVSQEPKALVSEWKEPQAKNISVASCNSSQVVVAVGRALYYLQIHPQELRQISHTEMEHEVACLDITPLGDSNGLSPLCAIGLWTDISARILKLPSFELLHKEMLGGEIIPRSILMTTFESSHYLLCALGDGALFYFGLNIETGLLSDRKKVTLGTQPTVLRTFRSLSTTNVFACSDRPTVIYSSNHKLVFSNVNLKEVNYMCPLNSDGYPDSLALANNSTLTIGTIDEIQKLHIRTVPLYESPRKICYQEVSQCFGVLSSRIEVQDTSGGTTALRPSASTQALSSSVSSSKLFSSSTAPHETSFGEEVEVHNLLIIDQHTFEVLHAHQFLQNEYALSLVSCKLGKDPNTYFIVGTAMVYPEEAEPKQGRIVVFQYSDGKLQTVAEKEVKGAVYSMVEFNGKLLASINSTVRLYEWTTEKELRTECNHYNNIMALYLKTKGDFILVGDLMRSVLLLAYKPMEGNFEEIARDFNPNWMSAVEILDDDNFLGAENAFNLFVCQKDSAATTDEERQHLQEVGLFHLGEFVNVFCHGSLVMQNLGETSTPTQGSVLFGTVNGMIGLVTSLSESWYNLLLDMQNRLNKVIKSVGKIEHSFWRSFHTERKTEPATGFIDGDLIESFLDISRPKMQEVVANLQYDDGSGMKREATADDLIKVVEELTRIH
In assay [2] the target is T1, IKZF2 (Homo sapiens (Human), UniProt Q96SW2+Q9UKS7). In words: IKZF2 FACS Assay (Jurkat cells). The following applies: read-out: IKZF2 FACS degradation Dmax. In kind it is cell-based. As for the experimental part:
(§1) Jurkat cells (ATCC, Cat […]) were cultured in RPMI1640+10% FBS+1% P/S. Cells were treated at desired compound concentrations (0.05 to 10 μM) and DMSO as vehicle control for 24 hrs.

Assay [3] concerns the target IKZF2 (Homo sapiens (Human), UniProt Q9UKS7). In words: IKZF2 FACS Assay (Jurkat cells). In kind it is cell-based. To be noted: Jurkat cells, 24 hrs; read-out: IKZF2 FACS degradation DC50. How it is done: as §1
The target in assay [4] is T1, IKZF2. In words: IKZF2 HiBit Assay (HEK293T Flp-in-HiBiT cells). The format is cell-based. To be noted: for DC50: read-out: IKZF2 HiBit degradation DC50; for Dmax: HEK-293T, read-out: IKZF2 HiBit degradation Dmax. In outline: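 HEK293T Flp-in cells carrying CRISPR-inserted N-terminal HiBiT tag at the endogenous IKZF2 locus were treated with an 11-point, 3-fold dilution from 1 mM (stock) for 6 hrs; final DMSO 0.1%. HiBiT luminescence was detected after lysis with LgBiT/substrate reagent. DMSO-normalized curves gave 50% degradation concentration and Dmax.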

The target in another assay is IKZF1 (Homo sapiens (Human), UniProt Q13422+Q96SW2). In words: IKZF1 HiBit Assay (HEK293T Flp-in-HiBiT-IKZF1 stable cell line). The format is cell-based. The following applies: for DC50: read-out: IKZF1 HiBit degradation DC50; for Dmax: HEK-293T, read-out: IKZF1 HiBit degradation Dmax. An outline of the steps: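 HEK293T Flp-in cells with CRISPR-inserted N-terminal HiBiT tag treated 6 h with 11-point threefold dilutions (0.1% DMSO). Nano-Glo HiBiT lytic luminescence normalised to DMSO gave the 50%-degradation concentration; Dmax taken as the luminescence range from highest to lowest concentration.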
IKZF1, sequence (Q13422 whole entry): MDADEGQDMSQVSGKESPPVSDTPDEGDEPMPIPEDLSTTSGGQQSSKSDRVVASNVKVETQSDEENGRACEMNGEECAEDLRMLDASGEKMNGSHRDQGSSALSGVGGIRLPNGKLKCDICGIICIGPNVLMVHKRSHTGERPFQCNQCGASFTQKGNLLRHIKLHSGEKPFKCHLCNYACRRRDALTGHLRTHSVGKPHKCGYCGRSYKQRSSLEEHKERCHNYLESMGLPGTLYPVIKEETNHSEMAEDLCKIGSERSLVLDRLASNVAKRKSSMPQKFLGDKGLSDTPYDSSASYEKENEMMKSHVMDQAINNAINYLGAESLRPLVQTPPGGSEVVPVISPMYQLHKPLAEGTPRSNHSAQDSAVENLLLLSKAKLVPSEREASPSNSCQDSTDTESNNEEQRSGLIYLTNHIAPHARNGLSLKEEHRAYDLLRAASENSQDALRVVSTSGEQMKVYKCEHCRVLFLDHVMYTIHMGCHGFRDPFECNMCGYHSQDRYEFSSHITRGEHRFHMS
IKZF1, sequence (Q96SW2 whole entry): as the sequence (Q96SW2 whole entry) above
IKZF1, sequence (Q16531 whole entry partner): as the sequence (Q16531 whole entry partner) above

Setting [5] is: HEK293T Flp-in-HiBiT cells, 6 hrs.
[6] abbreviates: HEK293T Flp-in-HiBiT-IKZF1 cells, 6 hrs.

Like-named read-outs stand apart in the source and are kept apart here.

IKZF2 (Homo sapiens (Human), UniProt Q9UKS7), sequence (Q9UKS7 whole entry): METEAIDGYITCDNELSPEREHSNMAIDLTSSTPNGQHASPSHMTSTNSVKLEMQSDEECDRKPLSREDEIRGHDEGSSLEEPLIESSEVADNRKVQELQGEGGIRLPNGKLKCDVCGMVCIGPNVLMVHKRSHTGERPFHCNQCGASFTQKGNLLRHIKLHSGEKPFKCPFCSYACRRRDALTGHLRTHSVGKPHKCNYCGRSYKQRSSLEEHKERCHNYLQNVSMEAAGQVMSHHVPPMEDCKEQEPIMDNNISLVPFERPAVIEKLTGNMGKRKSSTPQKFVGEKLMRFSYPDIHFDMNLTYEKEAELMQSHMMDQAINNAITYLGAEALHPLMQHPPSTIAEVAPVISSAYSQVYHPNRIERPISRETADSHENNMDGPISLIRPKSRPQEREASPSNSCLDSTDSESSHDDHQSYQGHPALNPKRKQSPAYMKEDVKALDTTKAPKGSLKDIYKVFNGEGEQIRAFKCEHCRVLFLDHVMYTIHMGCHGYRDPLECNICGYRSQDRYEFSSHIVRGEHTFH
IKZF2 (Homo sapiens (Human), UniProt Q9UKS7), sequence (Q96SW2 whole entry, further chain): as the sequence (Q96SW2 whole entry) above
IKZF2 (Homo sapiens (Human), UniProt Q9UKS7), sequence (Q16531 whole entry partner): as the sequence (Q16531 whole entry partner) above
T1 sequence (Q9UKS7 whole entry): as the sequence (Q9UKS7 whole entry) above
T1 sequence (Q96SW2 whole entry): as the sequence (Q96SW2 whole entry) above
T1 sequence (Q16531 whole entry partner): as the sequence (Q16531 whole entry partner) above

Regarding `Cn1cc(-c2cccc(CN3CC[C@]4(COc5c4ccc4c5CN([C@H]5CCC(=O)NC5=O)C4=O)C(F)(F)C3)c2)cn1` [Compound B51, (S)-3-((S)-3′,3′-difluoro-1′-(3-(1-methyl-1H-pyrazol-4-yl)benzyl)-6-oxo-6,8-dihydro-2H,7H-spiro[furo[2,3-e]isoindole-3,4′-piperidin]-7-yl) piperidine-2,6-dione], the IC50 in assay [1] was less than 0.1 µM. Besides, the Dmax is more than 60% at IKZF2 [2] (Jurkat cells, 24 hrs); 60 to 80% on IKZF2 [4] (setting [5]); less than 20% on IKZF1 (setting [6]). The DC50 on IKZF2 [3] was less than 0.01 µM; at IKZF2 [4] (setting [5]), less than 0.001 µM; on IKZF1 (setting [6]), more than 1 µM.
Turning to `Cn1cc(-c2cccc(CN3CCC4(CC3)COc3c4ccc4c3CN([C@@H]3CCC(=O)NC3=O)C4=O)c2)cn1` [Compound B14, (R)-3-(1′-(3-(1-methyl-1H-pyrazol-4-yl)benzyl)-6-oxo-6,8-dihydro-2H,7H-spiro[furo[2,3-e]isoindole-3,4′-piperidin]-7-yl)piperidine-2,6-dione], the IC50 in assay [1] lay in the range of 1 to 5 µM. In addition, the Dmax is 40 to 60% at IKZF2 [2] (Jurkat), more than 80% at IKZF2 [4] and less than 20% at IKZF1. In addition, the DC50 at IKZF2 [3] was more than 0.01 µM; at IKZF2 [4] (setting [5]), 0.001 to 0.01 µM; at IKZF1 (setting [6]) it was more than 1 µM.
In the case of `N#Cc1ccc(-n2cc(CN3CCC4(COc5c4ccc4c5CN([C@H]5CCC(=O)NC5=O)C4=O)C(F)(F)C3)cn2)cc1` (stereo partly drawn) [Compound B27, 4-(4-((7-((S)-2,6-dioxopiperidin-3-yl)-3′,3′-difluoro-6-oxo-7,8-dihydro-2H,6H-spiro[furo[2,3-e]isoindole-3,4′-piperidin]-1′-yl)methyl)-1H-pyrazol-1-yl)benzonitrile], the Dmax at IKZF2 [2] (Jurkat cells, 24 hrs) was less than 40%; at IKZF2 [4] (setting [5]), 60 to 80%; on IKZF1 (setting [6]) it was less than 20%. Further, the DC50 was more than 0.01 µM at IKZF2 [3], 0.001 to 0.01 µM on IKZF2 [4] (setting [5]) and more than 1 µM on IKZF1 (setting [6]).
For the molecule `O=C1CC[C@H](N2Cc3c(ccc4c3OC[C@]43CCN(Cc4cccc(-c5cnn(C6COC6)c5)c4)CC3(F)F)C2=O)C(=O)N1` [Compound B53, (S)-3-((S)-3′,3′-difluoro-1′-(3-(1-(oxetan-3-yl)-1H-pyrazol-4-yl)benzyl)-6-oxo-6,8-dihydro-2H,7H-spiro[furo[2,3-e]isoindole-3,4′-piperidin]-7-yl)piperidine-2,6-dione], the Dmax on IKZF2 [2] (Jurkat cells, 24 hrs) was 40 to 60%; on IKZF2 [4] (setting [5]), more than 80%; at IKZF1 (setting [6]) it was less than 20%. Further, the DC50 at IKZF2 [3] is less than 0.01 µM; at IKZF2 [4] (setting [5]), less than 0.001 µM; at IKZF1 (setting [6]) it was more than 1 µM.
As for `Cn1cc(-c2cccc(CN3CCC4(CC3)COc3c5c(cc(F)c34)C(=O)N([C@H]3CCC(=O)NC3=O)C5)c2)cn1` [Compound B55, (S)-3-(4-fluoro-1′-(3-(1-methyl-1H-pyrazol-4-yl)benzyl)-6-oxo-6,8-dihydro-2H,7H-spiro[furo[2,3-e]isoindole-3,4′-piperidin]-7-yl)piperidine-2,6-dione], the Dmax on IKZF2 [2] (Jurkat cells, 24 hrs) is 40 to 60%; at IKZF2 [4] (setting [5]), more than 80%; on IKZF1 (setting [6]), less than 20%. The DC50 at IKZF2 [3] was less than 0.01 µM; on IKZF2 [4] (setting [5]), less than 0.001 µM; at IKZF1 (setting [6]), more than 1 µM.
For the molecule `Cn1cc(-c2cccc(CN3CCC4(COc5c4ccc4c5CN(C5CCC(=O)NC5=O)C4=O)C(F)(F)C3)c2)cn1` (stereo not drawn) [Compound B26, 3-(3′,3′-difluoro-1′-(3-(1-methyl-1H-pyrazol-4-yl)benzyl)-6-oxo-6,8-dihydro-2H,7H-spiro[furo[2,3-e]isoindole-3,4′-piperidin]-7-yl)piperidine-2,6-dione], the Dmax at IKZF2 [2] (Jurkat cells, 24 hrs) is more than 60%; on IKZF2 [4] (setting [5]), more than 80%; at IKZF1 (setting [6]), less than 20%. In addition, the DC50 on IKZF2 [3] is less than 0.01 µM; at IKZF2 [4] (setting [5]), 0.001 to 0.01 µM; at IKZF1 (setting [6]), more than 1 µM.
In assay [1], `O=C1CC[C@H](N2Cc3c(ccc4c3OCC43CCN(Cc4cccc(-c5cnn(C6COC6)c5)c4)CC3(F)F)C2=O)C(=O)N1` (stereo partly drawn) [Compound B32, (3S)-3-(3′,3′-difluoro-1′-(3-(1-(oxetan-3-yl)-1H-pyrazol-4-yl)benzyl)-6-oxo-6,8-dihydro-2H,7H-spiro[furo[2,3-e]isoindole-3,4′-piperidin]-7-yl)piperidine-2,6-dione] gave an IC50 of 0.1 to 0.5 µM. Also, the greatest degradation seen (Dmax) is 40 to 60% at IKZF2 [2] (Jurkat cells, 24 hrs); 60 to 80% at IKZF2 [4] (setting [5]); less than 20% on IKZF1 (setting [6]). Moreover, the DC50 on IKZF2 [3] is less than 0.01 µM; on IKZF2 [4] (setting [5]), less than 0.001 µM; on IKZF1 (setting [6]), more than 1 µM.
On to `O=C1CC[C@H](N2Cc3c(ccc4c3OCC43CCN(Cc4cnn(CC5CCOCC5)c4)CC3(F)F)C2=O)C(=O)N1` (stereo partly drawn) [Compound B46, (3S)-3-(3′,3′-difluoro-6-oxo-1′-((1-((tetrahydro-2H-pyran-4-yl)methyl)-1H-pyrazol-4-yl)methyl)-6,8-dihydro-2H,7H-spiro[furo[2,3-e]isoindole-3,4′-piperidin]-7-yl)piperidine-2,6-dione], for which the maximal degradation (Dmax) at IKZF2 [2] (Jurkat cells, 24 hrs) is 40 to 60%; at IKZF2 [4] (setting [5]) it was 60 to 80%; at IKZF1 (setting [6]), less than 20%. In addition, the DC50 is less than 0.01 µM on IKZF2 [3], 0.001 to 0.01 µM at IKZF2 [4] (setting [5]) and more than 1 µM on IKZF1 (setting [6]).
